This passage reports pest or weed control and mortality results from patent US12419304B2, “Aryl sulfide comprising benzylamine, synthesis method and application thereof” (Shandong Kangqiao Bio-Technology Co., Ltd., priority 2019, dated 2025).

Like-named read-outs stand apart in the source and are kept apart here. Where only a bound is given, the exact number is not on record here.

The subject of this test is Tetranychus cinnabarinus. The test can be described thus: Activity test of Tetranychus cinnabarinus (spray on inoculated bean seedlings, mortality after 72 hours). The format is in vivo. As to conditions: for pest or weed control at 6.25 ppm: 6.25 ppm (6.25 mg/L); for pest or weed control at 6.25 ppm / pest or weed control at 25 ppm / pest or weed control at 100 ppm: whole plant sprayed, 72 hours, read-out: lethal rate against mites; for pest or weed control at 25 ppm: 25 ppm (25 mg/L); for pest or weed control at 100 ppm: 100 ppm (100 mg/L). The protocol: Activity Test of Tetranychus cinnabarinus
The compound under test was dissolved in acetone and diluted to desired concentration with 0.1% Tween 80 solution with acetone content not exceeding 5%.
One true leaf was removed from the bean seedlings having two true leaves. Tanyanychus cinarinus was inoculated and the cardinal number thereof investigated. The whole plant was sprayed with a handheld sprayer, and each treatment was repeated for 3 times. After treatment, the bean seedlings were cultured in a constant temperature room. 72 hours later, the number of live mites was investigated and the mortality rate was calculated. The number of Tetranychus cinnabarinus was 100-200 per inoculation. Mortality=(number of inoculated mites−number of live mites after treatment)[…]×100%.

Setting [1] is: Concentration 3.12 ppm, acaricidal parallel test with bifenazate and cyflumetofen, read-out: Mortality %.

Regarding `COC(=O)c1ccccc1CNc1cc([S+]([O-])CC(F)(F)F)c(C)cc1F` (centres unmarked) [Compound 54], the pest or weed control at 6.25 ppm was above 90%, the pest or weed control at 25 ppm is above 90% and the pest or weed control at 100 ppm was above 90%. For the same molecule, under setting [1], the mortality (usually the percentage killed) at 3.12 ppm amounted to 100%.

Turning to `COC(=O)c1cc(F)ccc1CNc1cc([S+]([O-])CC(F)(F)F)c(C)cc1F` (centres unmarked) [Compound 304], the pest or weed control at 6.25 ppm was above 90%, the pest or weed control at 25 ppm is above 90% and the pest or weed control at 100 ppm was above 90%. Under setting [1], the mortality at 3.12 ppm is 98%.

With `COC(=O)c1ccccc1CNc1cc(SCC(F)(F)F)c(Cl)cc1F` [Compound 1202, 2-((((4-chloro-2-fluoro-5-((2,2,2-trifluoroethyl)thio)phenyl)amino)methyl) benzoate], the pest or weed control at 6.25 ppm was above 90%, the pest or weed control at 25 ppm was above 90% and the pest or weed control at 100 ppm is above 90%. In addition, the mortality at 3.12 ppm under setting [1] is 97%.

For the molecule `Cc1cc(F)c(NCc2ccc(Cl)c(F)c2)cc1SCC(F)(F)F` [Compound 249, N-(4-chloro-3-fluorobenzyl)-2-fluoro-4-methyl-5-((2,2,2-trifluoroethyl)thio) aniline], the pest or weed control at 100 ppm was above 90%.

As for `COC(=O)c1cc(F)ccc1CNc1cc([S+]([O-])CC(F)(F)F)c(Cl)cc1F` (centres unmarked) [Compound 1166], the pest or weed control at 6.25 ppm is above 90%, the pest or weed control at 25 ppm is above 90% and the pest or weed control at 100 ppm is above 90%. Further, the mortality at 3.12 ppm under setting [1] is 98%.

Regarding `COC(=O)c1ccccc1CNc1cc([S+]([O-])CC(F)(F)F)c(Cl)cc1F` (centres unmarked) [Compound 1203], the pest or weed control at 6.25 ppm was above 90%, the pest or weed control at 25 ppm was above 90% and the pest or weed control at 100 ppm is above 90%. Also, the mortality at 3.12 ppm under setting [1] is 98%.

On to `Cc1cc(F)c(NCc2cccc(F)c2)cc1SCC(F)(F)F` [Compound 229, 2-fluoro-N-(3-fluorobenzyl)-4-methyl-5-((2,2,2-trifluoroethyl)thio) aniline], for which the pest or weed control at 100 ppm is above 90%.

For the molecule `COC(=O)c1cc(F)ccc1CNc1cc(SCC(F)(F)F)c(C)cc1F` [Compound 303, 5-Fluoro-2-((((2-Fluoro-4-methyl-5-(2,2,2-trifluoroethyl)thio)phenyl)amino)methyl) benzoate], the pest or weed control at 6.25 ppm was above 90%, the pest or weed control at 25 ppm is above 90% and the pest or weed control at 100 ppm was above 90%. Moreover, the mortality at 3.12 ppm under setting [1] was 99%.

Turning to `COC(=O)c1cc(F)ccc1CNc1cc(SCC(F)(F)F)c(Cl)cc1F` [Compound 1165], the pest or weed control at 6.25 ppm is above 90%, the pest or weed control at 25 ppm is above 90% and the pest or weed control at 100 ppm is above 90%. Besides, the mortality at 3.12 ppm under setting [1] was 99%.

For the molecule `Cc1cc(F)c(NCc2ccc(Cl)c(Cl)c2)cc1SCC(F)(F)F` [Compound 247], the pest or weed control at 100 ppm is above 90%.

With `Cc1cc(F)c(NCc2ccccc2C#N)cc1SCC(F)(F)F` [Compound 33], the pest or weed control at 100 ppm was above 90%.

Take `COc1ccc(-c2ccccc2)cc1NNC(=O)OC(C)C` [Bifenazate, bifenazate, reference compound]: the mortality at 3.12 ppm stood at 85%.

For the molecule `COC(=O)c1ccccc1CNc1cc(SCC(F)(F)F)c(C)cc1F` [Compound 53], the pest or weed control at 6.25 ppm is above 90%, the pest or weed control at 25 ppm was above 90% and the pest or weed control at 100 ppm is above 90%. Further, under setting [1], the mortality at 3.12 ppm worked out at 99%.

`COCCOC(=O)C(C#N)(C(=O)c1ccccc1C(F)(F)F)c1ccc(C(C)(C)C)cc1` (centres unmarked) [Cyflumetofen, cyflumetofen, reference compound] displayed a mortality at 3.12 ppm of 72%.
